{"source": "patent US8946299B2", "about": "“Use of calixarenes associated with an antibiotic in the treatment of bacterial infections” (Universite de Lorraine, priority 2011, dated 2015)", "key": {"[1]": {"tested_on": "SaR3: Meticillin-Resistant Staphylococcus aureus", "assay": "Antibiogram by the disk diffusion technique", "format": "cell-based", "conditions": "Table E1; strain SaR3"}, "[2]": {"tested_on": "Staphylococcus aureus strain ATCC 29213 (wild type)", "assay": "Chessboard technique: MICs alone and synergism of Cx1 combinations", "format": "cell-based", "conditions": "for Initials MIC (antibiotic): antibiotic used alone, second figure of the cell, n = 4", "excerpt": "(§1) Three reference strains were used, corresponding to those studied for the MICs and MBCs (Minimum Bactericidal Concentration): Escherichia coli ATCC 25922, Staphylococcus aureus ATCC 29213, Pseudomonas aeruginosa ATCC 27853. For each of these strains 3 corresponding clinical isolates were chosen, having various antibiotic-resistance profiles, routinely used in standard fashion: • EcR1, EcR2, EcR3; • SaR1, SaR3, SaR4; • PaR2, PaR3, PaR5.\n(§2) 1.3. Procedure: Chessboard Technique\n(§3) The bacterial suspension is transferred to a 15 mL Falcon tube, centrifuged for 10 min at 4500 g, then the pellet is re-suspended in 1 mL of sterile distilled water. Suitable dilutions are then prepared in order to obtain a bacterial inoculum between 5·10^5 and 5·10^6 CFU/mL.\n(§4) The MICs of the antibiotics were previously determined for each strain, by the method of microdilution in a liquid medium (CLSI (Clinical and Laboratory Standards Institute), 2003).\n(§5) The same procedure is followed for the Cx1. […] Thus 64 ATB/Cx1 combinations are obtained.\n(§6) The final volume contained in each of the wells must be 100 μL. Two controls must be present on each plate: • column 1 and 12: medium control • column 2 and 11: medium+bacteria control\n(§7) Cx1: […] in the wells of […], starting with the lowest concentration.\n(§8) ATB: 25 μL in the wells of rows H to A (columns 3 to 11), starting with the lowest concentration.\n(§9) 50 μL in each of the wells of columns 2 to 11.\n(§10) D2: Reading the Turbidity at 540 Nm.\n(§11) The FIC (Fractional Inhibitory Concentration Index) value is determined by the following formula:\n(§12) [formula] MICA in combination MICA alone MICB in combination MICB alone\n(§13) When FIC≦0.5, there is a synergistic effect between antibiotic A and antibiotic B.\n(§14) When 0.5<FIC≦1, there is an additive effect between antibiotic A and antibiotic B.\n(§15) When 1<FIC≦4, there is an indifferent effect between antibiotic A and antibiotic B.\n(§16) When FIC>4, there is an antagonistic effect between antibiotic A and antibiotic B.\n(§17) For each strain and each antibiotic/Cx1 combination, the experiments were repeated a minimum of 3 times."}, "[3]": {"tested_on": "SaR1: Meticillin-Resistant Staphylococcus aureus without Associated Resistance", "assay": "Antibiogram by the VITEK 2 system", "format": "cell-based", "conditions": "Table D1; strain SaR1", "experimental": "5.4 SaR1: Meticillin-Resistant Staphylococcus aureus without Associated Resistance\nThe bacterial and antibiogram identification is carried out by the VITEK 2 system (bioMérieux)\nFebruary 2006: Detection of the gene mecA by the PCR technique: POSITIVE Expert finding July 2006: totally typical phenotype: modification of the PLPs The fluctuations relative to the type of associated resistance for certain strains between Tables D1 and D2 are due to the development of the French (CA-SFM), European (EUCAST) and American (CLSI) recommendations for the categorization of bacterial strains. 5.5 SaR3: Meticillin-Resistant Staphylococcus aureus Having an Associated Resistance to the Aminoglycosides and Fluoroquinolones The bacterial and antibiogram identification is carried out by the VITEK 2 system (bioMérieux) and by the disk diffusion technique"}, "[4]": {"tested_on": "MRSA strain without associated resistance (SaR1)", "assay": "Chessboard technique: MICs alone and synergism of Cx1 combinations", "format": "cell-based, Staphylococcus aureus", "conditions": "for MIC (antibiotic): antibiotic used alone, second figure of the cell, n = 4", "excerpt": "as §1, §2, §3, §4, §5, §6, §7, §8, §9, §10, §11, §12, §13, §14, §15, §16, §17"}, "[5]": {"tested_on": "MRSA strain having a resistance to the aminoglycosides, fluoroquinolones, macrolides-lincosamides-synergistins and ofloxacin (SaR4)", "assay": "Chessboard technique: MICs alone and synergism of Cx1 combinations", "format": "cell-based, Staphylococcus aureus", "conditions": "antibiotic used alone; second figure of the cell; n = 4", "excerpt": "as §1, §2, §3, §4, §5, §6, §7, §8, §9, §10, §11, §12, §13, §14, §15, §16, §17"}, "[6]": {"tested_on": "MRSA strain having a resistance to the aminoglycosides and fluoroquinolones (SaR3)", "assay": "Chessboard technique: MICs alone and synergism of Cx1 combinations", "format": "cell-based, Staphylococcus aureus", "conditions": "for MIC (antibiotic): antibiotic used alone, second figure of the cell, n = 4", "excerpt": "as §1, §2, §3, §4, §5, §6, §7, §8, §9, §10, §11, §12, §13, §14, §15, §16, §17"}, "[7]": {"tested_on": "SaR4: Meticillin-Resistant Staphylococcus aureus", "assay": "Antibiogram by the disk diffusion technique", "format": "cell-based", "conditions": "Table F2; strain SaR4; diameters", "experimental": "(§18) 5.6 SaR4: Meticillin-Resistant Staphylococcus aureus Having an Associated Resistance to the Aminoglycosides, Fluoroquinolones, Macrolides-Lincosamines-Synergistins and Ofloxacin The bacterial and antibiogram identification is carried out by the VITEK 2 system (bioMérieux) and by the disk diffusion technique\n(§19) 5.7 PaR2: Pseudomonas aeruginosa Having an Associated Resistance to the β-Lactams, the Trimethoprim-Sulphamethoxazole Combination and Fosfomycin The bacterial and antibiogram identification is carried out by the VITEK 2 system (bioMérieux) and by the disk diffusion technique"}, "[8]": {"tested_on": "EcR1: Penicillinase-Producing Escherichia coli without Associated Resistance", "assay": "Antibiogram by the disk diffusion technique", "format": "cell-based", "experimental": "(§20) 5. Identification and Antibiogram 5.1 EcR1: Penicillinase-Producing Escherichia coli without Associated Resistance\n(§21) The bacterial and antibiogram identification is carried out by the VITEK 2 system (bioMérieux) and by the disk diffusion technique."}, "[9]": {"tested_on": "Escherichia coli, Staphylococcus aureus and Pseudomonas aeruginosa strains", "assay": "Chessboard technique, summary over all strains and combinations tested", "format": "cell-based", "excerpt": "as §1, §2\nThe FIC (Fractional Inhibitory Concentration Index) value is determined by the following formula: […]\nas §17"}, "[10]": {"tested_on": "Escherichia coli strain ATCC 25922 (wild type)", "assay": "Chessboard technique: MICs alone and synergism of Cx1 combinations", "format": "cell-based", "conditions": "antibiotic used alone; second figure of the cell; n = 4", "excerpt": "as §1, §2, §3, §4, §5, §6, §7, §8, §9, §10, §11, §12, §13, §14, §15, §16, §17"}, "[11]": {"tested_on": "ESBL-producing strain of Escherichia coli (EcR3)", "assay": "Chessboard technique: MICs alone and synergism of Cx1 combinations", "format": "cell-based", "conditions": "antibiotic used alone; second figure of the cell; n = 4", "excerpt": "as §1, §2, §3, §4, §5, §6, §7, §8, §9, §10, §11, §12, §13, §14, §15, §16, §17"}, "[12]": {"tested_on": "cephalosporinase-hyperproducing strain of Escherichia coli (EcR2)", "assay": "Chessboard technique: MICs alone and synergism of Cx1 combinations", "format": "cell-based", "conditions": "antibiotic used alone; second figure of the cell; n = 4", "excerpt": "as §1, §2, §3, §4, §5, §6, §7, §8, §9, §10, §11, §12, §13, §14, §15, §16, §17"}, "[13]": {"tested_on": "penicillinase-producing strain of Escherichia coli without associated resistance (EcR1)", "assay": "Chessboard technique: MICs alone and synergism of Cx1 combinations", "format": "cell-based", "conditions": "antibiotic used alone; second figure of the cell; n = 4", "excerpt": "as §1, §2, §3, §4, §5, §6, §7, §8, §9, §10, §11, §12, §13, §14, §15, §16, §17"}, "[14]": {"tested_on": "PaR5: Pseudomonas aeruginosa", "assay": "Antibiogram by the disk diffusion technique", "format": "cell-based", "set-up": "unit not given here", "conditions": "Table I1; strain PaR5"}, "[15]": {"tested_on": "EcR1: Penicillinase-Producing Escherichia coli without Associated Resistance", "assay": "Antibiogram, MIC by the VITEK 2 system", "format": "cell-based", "conditions": "Table A1, category from MIC", "experimental": "as §20, §21"}, "[16]": {"tested_on": "SaR4: Meticillin-Resistant Staphylococcus aureus", "assay": "Antibiogram, MIC by the VITEK 2 system", "format": "cell-based", "experimental": "as §18, §19"}, "[17]": {"assay": "Chessboard technique: MICs alone and synergism of Cx1 combinations", "format": "cell-based, Staphylococcus aureus", "conditions": "Staphylococcus aureus, MRSA, read-out: MIC (antibiotic)", "excerpt": "as §1, §2, §3, §4, §5, §6, §7, §8, §9, §10, §11, §12, §13, §14, §15, §16, §17"}, "[18]": {"conditions": "Staphylococcus aureus, MRSA, read-out: MIC (antibiotic)"}}, "note": "Read-outs that look alike come from different tables or passages of the source.", "data": [{"molecule": "CC1(C)S[C@@H]2[C@H](NC(=O)Cc3ccccc3)C(=O)N2[C@H]1C(=O)O", "note": "[Penicillin G]", "values": [{"measurement": "Diameter", "setting": "[1]", "value": 26}, {"measurement": "Initials MIC (antibiotic)", "setting": "[2]", "value": 1, "unit": "mg/L"}, {"measurement": "Diameter", "setting": "[3]", "value": 28}, {"measurement": "MIC (antibiotic)", "setting": "[4]", "value": 0.5, "unit": "mg/L"}, {"measurement": "MIC (antibiotic)", "setting": "[5]", "value": 4, "unit": "mg/L"}, {"measurement": "MIC (antibiotic)", "setting": "[6]", "value": 0.5, "unit": "mg/L"}]}, {"molecule": "NC[C@H]1O[C@H](O[C@H]2[C@H](O)[C@@H](O[C@H]3O[C@H](CO)[C@@H](O)[C@H](N)[C@H]3O)[C@H](N)C[C@@H]2N)[C@H](O)[C@@H](O)[C@@H]1O", "note": "[Kanamycin]", "values": [{"measurement": "diameter in mm", "setting": "[7]", "value": 7, "unit": "mm"}]}, {"molecule": "Gentamicin", "values": [{"measurement": "Diameter", "setting": "[1]", "value": 20}, {"measurement": "Results (diameter)", "setting": "[8]; Table A1, category from diameter vs Dmin Dmax", "value": "Susceptible"}, {"measurement": "Diameter", "setting": "[8]; Table A1, disk diffusion", "value": 20}, {"measurement": "nature of the interaction between Cx1 and the antibiotic", "setting": "[9]", "value": "synergism"}, {"measurement": "Initials MIC (antibiotic)", "setting": "[2]", "value": 0.25, "unit": "mg/L"}, {"measurement": "Initial MICs (antibiotic)", "setting": "[10]", "value": 0.125, "unit": "mg/L"}, {"measurement": "Initial MICs (antibiotic)", "setting": "[11]", "value": "2/2 mg/L"}, {"measurement": "Initial MICs (antibiotic)", "setting": "[12]", "value": "2/2 mg/L"}, {"measurement": "Initial MICs (antibiotic)", "setting": "[13]", "value": 0.125, "unit": "mg/L"}, {"measurement": "Diameter", "setting": "[14]", "value": 25}, {"measurement": "Results (MIC)", "setting": "[15]", "value": "Susceptible"}, {"measurement": "Diameter", "setting": "[3]", "value": 23}, {"measurement": "MIC (antibiotic)", "setting": "[4]", "value": 0.25, "unit": "mg/L"}, {"measurement": "MIC (antibiotic)", "setting": "[5]", "value": 0.25, "unit": "mg/L"}, {"measurement": "MIC (antibiotic)", "setting": "[6]", "value": 0.125, "unit": "mg/L"}]}, {"molecule": "CN[C@H](CC(C)C)C(=O)N[C@H]1C(=O)N[C@@H](CC(N)=O)C(=O)N[C@H]2C(=O)N[C@H]3C(=O)N[C@H](C(=O)N[C@H](C(=O)O)c4cc(O)cc(O)c4-c4cc3ccc4O)[C@H](O)c3ccc(c(Cl)c3)Oc3cc2cc(c3O[C@@H]2O[C@H](CO)[C@@H](O)[C@H](O)[C@H]2O[C@H]2C[C@](C)(N)[C@H](O)[C@H](C)O2)Oc2ccc(cc2Cl)[C@H]1O", "note": "[Vancomycin]", "values": [{"measurement": "MIC", "setting": "[16]; Staphylococcus aureus, read-out: MIC mg/L", "value": 1, "unit": "mg/L"}, {"measurement": "MIC", "setting": "[16]; Table F2, strain SaR4, cells of the mixed column that are MICs", "value": 1, "unit": "mg/L"}, {"measurement": "MIC", "setting": "[2]; Staphylococcus aureus, ATCC29213, read-out: Initials MIC (antibiotic)", "value": 0.5, "unit": "µg/mL"}, {"measurement": "MIC", "setting": "[4]; [18]", "value": 0.25, "unit": "µg/mL"}, {"measurement": "MIC", "setting": "[6]; [18]", "value": 0.25, "unit": "µg/mL"}, {"measurement": "MIC", "setting": "[17]", "value": 0.25, "unit": "µg/mL"}]}, {"molecule": "CCn1cc(C(=O)O)c(=O)c2cc(F)c(N3CCNCC3)cc21", "note": "[Norofloxacin]", "values": [{"measurement": "Diameter", "setting": "[14]", "value": 17}]}]}
